Legend:
in vitro = details: human, CC50, uninfected A549 cells, CellTiter-Glo
[1] = test system: Influenza strain A549 A/WSN/33 (H1N1); assay: microbe, parasite or virus in culture; assay type: cell-based; details: Influenza A virus, A549, 20 h, A549 cells, influenza A/WSN/33 (H1N1), 20 hours incubation; read-out: A549_A(H1N1) EC50

Which CC50 (in vitro) does the source give for `O=C1c2c(O)c(=O)ccn2N2CN1C/C=C\COc1cccc3c1[C@H]2c1ccccc1OC3` (single isomer, unassigned) [Compound 53A, (21a*R,Z)-16-hydroxy-6,10,13,21a-tetrahydro-7,8-(epiprop[1]en[1]yl[3]ylidene)-14,21-methanobenzo[6,7]oxepino[4,5-c]pyrido[1,2-f][1]oxa[5,6,9]triazacyclotridecine-15,17-dione] here?
Its CC50 is greater than 2000 nM.

What about the EC50 [1] of the same compound?
The EC50 was 34 nM.

Which results are given for `O=C1c2c(O)c(=O)ccn2N2CN1C/C=C\COc1cccc3c1[C@@H]2c1ccccc1OC3` (single isomer, unassigned) [Compound 53B, (21a*S,Z)-16-hydroxy-6,10,13,21a-tetrahydro-7,8-(epiprop[1]en[1]yl[3]ylidene)-14,21-methanobenzo[6,7]oxepino[4,5-c]pyrido[1,2-f][1]oxa[5,6,9]triazacyclotridecine-15,17-dione]?
CC50 (in vitro): > 2000 nM; EC50 [1]: > 1000 nM

For `O=C1c2c(O)c(=O)ccn2N2CN1CCC/C=C\c1ccccc1[C@H]2c1ccccc1` (single isomer, unassigned) [Compound 54A, (16*R,*Z)-4-hydroxy-16-phenyl-7,8,9,16-tetrahydro-6,17-methanobenzo[k]pyrido[1,2-b][1,2,5]triazacyclotridecine-3,5-dione], which CC50 (in vitro) is on record?
Its CC50 is greater than 2000 nM.

What about the EC50 [1] of the same compound?
Its EC50 is greater than 1000 nM.

What does the source list for `O=C1c2c(O)c(=O)ccn2N2CN1CCC/C=C\c1ccccc1[C@@H]2c1ccccc1` (single isomer, unassigned) [Compound 54B, (16*S,*Z)-4-hydroxy-16-phenyl-7,8,9,16-tetrahydro-6,17-methanobenzo[k]pyrido[1,2-b][1,2,5]triazacyclotridecine-3,5-dione]?
CC50 (in vitro): > 2000 nM; EC50 [1]: 33 nM

For `O=C1c2c(O)c(=O)ccn2N2CN1C/C=C\CCc1cnccc1[C@H]2c1ccccc1` (single isomer, unassigned) [Compound 56A, (18*R,*Z)-12-hydroxy-18-phenyl-5,6,9,18-tetrahydro-10,17-methanodipyrido[1,2-b:3′,4′-k][1,2,5]triazacyclotridecine-11,13-dione], which CC50 (in vitro) is on record?
The CC50 was greater than 2000 nM.

And the EC50 [1]?
The EC50 was greater than 1000 nM.

For `O=C1c2c(O)c(=O)ccn2N2CN1C/C=C\CCc1cnccc1[C@@H]2c1ccccc1` (single isomer, unassigned) [Compound 56B, (18*S,*Z)-12-hydroxy-18-phenyl-5,6,9,18-tetrahydro-10,17-methanodipyrido[1,2-b:3′,4′-k][1,2,5]triazacyclotridecine-11,13-dione], which CC50 (in vitro) is on record?
The CC50 was greater than 2000 nM.

What about the EC50 [1] of the same compound?
The EC50 was 161 nM.

What does the source list for `O=C1c2c(O)c(=O)ccn2N2CN1C/C=C/CCc1cc(F)ccc1[C@@H]2c1ccccn1` (single isomer, unassigned) [Compound 57A, (16*R,E)-13-fluoro-4-hydroxy-16-(pyridin-2-yl)-7,10,11,16-tetrahydro-6,17-methanobenzo[k]pyrido[1,2-b][1,2,5]triazacyclotridecine-3,5-dione]?
CC50 (in vitro): > 2000 nM; EC50 [1]: 32 nM

For `O=C1c2c(O)c(=O)ccn2N2CN1C/C=C/CCc1cc(F)ccc1[C@H]2c1ccccn1` (single isomer, unassigned) [Compound 57B, (16*S,E)-13-fluoro-4-hydroxy-16-(pyridin-2-yl)-7,10,11,16-tetrahydro-6,17-methanobenzo[k]pyrido[1,2-b][1,2,5]triazacyclotridecine-3,5-dione], which CC50 (in vitro) is on record?
Its CC50 is greater than 2000 nM.

What about the EC50 [1] of the same compound?
Its EC50 is greater than 1000 nM.

What does the source list for `O=C1c2c(O)c(=O)ccn2N2CN1C/C=C/CCc1cc(F)c(F)cc1[C@@H]2c1ccccn1` (single isomer, unassigned) [Compound 58A, (16*R,E)-13,14-difluoro-4-hydroxy-16-(pyridin-2-yl)-7,10,11,16-tetrahydro-6,17-methanobenzo[k]pyrido[1,2-b][1,2,5]triazacyclotridecine-3,5-dione]?
CC50 (in vitro): > 2000 nM; EC50 [1]: 44 nM

What does the source list for `O=C1c2c(O)c(=O)ccn2N2CN1C/C=C/CCc1cc(F)c(F)cc1[C@H]2c1ccccn1` (single isomer, unassigned) [Compound 58B, (16*S,E)-13,14-difluoro-4-hydroxy-16-(pyridin-2-yl)-7,10,11,16-tetrahydro-6,17-methanobenzo[k]pyrido[1,2-b][1,2,5]triazacyclotridecine-3,5-dione]?
CC50 (in vitro): > 2000 nM; EC50 [1]: > 1000 nM

Which results are given for `O=C1c2c(O)c(=O)ccn2N2CN1C/C=C\COc1c(F)cccc1[C@@H]2c1cccc(F)c1` (single isomer, unassigned) [Compound 59B, (18*S,Z)-4-fluoro-18-(3-fluorophenyl)-12-hydroxy-6,9-dihydro-18H-10,17-methanobenzo[b]pyrido[1,2-f][1]oxa[5,6,9]triazacyclotridecine-11,13-dione]?
CC50 (in vitro): > 2000 nM; EC50 [1]: 497 nM

For `O=C1c2c(O)c(=O)ccn2N2CN1C/C=C\COc1c(F)cccc1[C@H]2c1ccccc1` (single isomer, unassigned) [Compound 61A, (18*R,Z)-4-fluoro-12-hydroxy-18-phenyl-6,9-dihydro-18H-10,17-methanobenzo[b]pyrido[1,2-f][1]oxa[5,6,9]triazacyclotridecine-11,13-dione], which CC50 (in vitro) is on record?
The CC50 was greater than 2000 nM.

What about the EC50 [1] of the same compound?
The EC50 was 5 nM.

For `O=C1c2c(O)c(=O)ccn2N2CN1C/C=C\COc1c(F)cccc1[C@@H]2c1ccccc1` (single isomer, unassigned) [Compound 61B, (18*S,Z)-4-fluoro-12-hydroxy-18-phenyl-6,9-dihydro-18H-10,17-methanobenzo[b]pyrido[1,2-f][1]oxa[5,6,9]triazacyclotridecine-11,13-dione], which CC50 (in vitro) is on record?
Its CC50 is greater than 2000 nM.

And the EC50 [1]?
Its EC50 is 155 nM.

With `O=C1c2c(O)c(=O)ccn2N2CN1C/C=C\COc1ccccc1[C@H]2c1cccc(F)c1` (single isomer, unassigned) [Compound 63A, (18*R,Z)-18-(3-fluorophenyl)-12-hydroxy-6,9-dihydro-18H-10,17-methanobenzo[b]pyrido[1,2-f][1]oxa[5,6,9]triazacyclotridecine-11,13-dione] as the compound, how does the CC50 (in vitro) read?
Its CC50 is greater than 2000 nM.

And the EC50 [1]?
The EC50 was greater than 1000 nM.

With `O=C1c2c(O)c(=O)ccn2N2CN1C/C=C\COc1ccccc1[C@@H]2c1cccc(F)c1` (single isomer, unassigned) [Compound 63B, (18*S,Z)-18-(3-fluorophenyl)-12-hydroxy-6,9-dihydro-18H-10,17-methanobenzo[b]pyrido[1,2-f][1]oxa[5,6,9]triazacyclotridecine-11,13-dione] as the compound, how does the CC50 (in vitro) read?
The CC50 was greater than 2000 nM.

And the EC50 [1]?
The EC50 was 13 nM.

With `O=C1c2c(O)c(=O)ccn2N2CN1CC/C=C/CCOc1ccccc1[C@H]2c1ccccc1` (single isomer, unassigned) [Compound 65A, (2*R,*Z)-15-hydroxy-2-phenyl-12,13,14,16-tetrahydro-11H-4-oxa-1(1,3)-pyrido[2,1-f][1,2,4]triazina-3(1,2)-benzenacyclodecaphan-7-ene-14,16-dione] as the compound, how does the CC50 (in vitro) read?
Its CC50 is greater than 10000 nM.

And the EC50 [1]?
The EC50 was greater than 5000 nM.

What does the source list for `O=C1c2c(O)c(=O)ccn2N2CN1CC/C=C\CCOc1ccccc1[C@H]2c1ccccc1` (single isomer, unassigned) [Compound 65C, (2*R,*E)-15-hydroxy-2-phenyl-12,13,14,16-tetrahydro-11H-4-oxa-1(1,3)-pyrido[2,1-f][1,2,4]triazina-3(1,2)-benzenacyclodecaphan-7-ene-14,16-dione]?
CC50 (in vitro): > 20000 nM; EC50 [1]: 7890 nM

Which CC50 (in vitro) does the source give for `O=C1c2c(O)c(=O)ccn2N2CN1CC/C=C/CCOc1ccccc1[C@@H]2c1ccccc1` (single isomer, unassigned) [Compound 65D, (2*S,*E)-15-hydroxy-2-phenyl-12,13,14,16-tetrahydro-11H-4-oxa-1(1,3)-pyrido[2,1-f][1,2,4]triazina-3(1,2)-benzenacyclodecaphan-7-ene-14,16-dione] here?
The CC50 was greater than 2000 nM.

What about the EC50 [1] of the same compound?
Its EC50 is 66 nM.

Which CC50 (in vitro) does the source give for `O=C1c2c(O)c(=O)ccn2N2CN1CCC/C=C/COc1ccccc1[C@H]2c1ccccc1` (single isomer, unassigned) [Compound 67A, (2*R,*Z)-15-hydroxy-2-phenyl-12,13,14,16-tetrahydro-11H-4-oxa-1(1,3)-pyrido[2,1-f][1,2,4]triazina-3(1,2)-benzenacyclodecaphan-6-ene-14,16-dione] here?
Its CC50 is greater than 2000 nM.

What about the EC50 [1] of the same compound?
Its EC50 is greater than 1000 nM.

What does the source list for `O=C1c2c(O)c(=O)ccn2N2CN1CCC/C=C/COc1ccccc1[C@@H]2c1ccccc1` (single isomer, unassigned) [Compound 67B, (2*S,*Z)-15-hydroxy-2-phenyl-12,13,14,16-tetrahydro-11H-4-oxa-1(1,3)-pyrido[2,1-f][1,2,4]triazina-3(1,2)-benzenacyclodecaphan-6-ene-14,16-dione]?
CC50 (in vitro): > 2000 nM; EC50 [1]: > 1000 nM

For `O=C1c2c(O)c(=O)ccn2N2CN1C/C=C\COc1cc(F)c(F)cc1[C@@H]2c1ccccn1` (single isomer, unassigned) [Compound 70A, (18*R,*Z)-2,3-difluoro-12-hydroxy-18-(pyridin-2-yl)-6,9-dihydro-18H-10,17-methanobenzo[b]pyrido[1,2-f][1]oxa[5,6,9]triazacyclotridecine-11,13-dione], which CC50 (in vitro) is on record?
Its CC50 is greater than 20000 nM.

What about the EC50 [1] of the same compound?
Its EC50 is greater than 10000 nM.

Which CC50 (in vitro) does the source give for `O=C1c2c(O)c(=O)ccn2N2CN1C/C=C\COc1cc(F)c(F)cc1[C@H]2c1ccccn1` (single isomer, unassigned) [Compound 70B, (18*S,*Z)-2,3-difluoro-12-hydroxy-18-(pyridin-2-yl)-6,9-dihydro-18H-10,17-methanobenzo[b]pyrido[1,2-f][1]oxa[5,6,9]triazacyclotridecine-11,13-dione] here?
The CC50 was greater than 200 nM.

What about the EC50 [1] of the same compound?
The EC50 was 32 nM.

Which CC50 (in vitro) does the source give for `O=C1c2c(O)c(=O)ccn2N2CN1C/C=C\COc1cc(F)ccc1[C@@H]2c1ccccn1` (single isomer, unassigned) [Compound 71A, (18*R,*Z)-3-fluoro-12-hydroxy-18-(pyridin-2-yl)-6,9-dihydro-18H-10,17-methanobenzo[b]pyrido[1,2-f][1]oxa[5,6,9]triazacyclotridecine-11,13-dione] here?
The CC50 was greater than 200 nM.

What about the EC50 [1] of the same compound?
Its EC50 is 34 nM.

Which CC50 (in vitro) does the source give for `O=C1c2c(O)c(=O)ccn2N2CN1C/C=C\COc1cc(F)ccc1[C@H]2c1ccccn1` (single isomer, unassigned) [Compound 71B, (18*S,*Z)-3-fluoro-12-hydroxy-18-(pyridin-2-yl)-6,9-dihydro-18H-10,17-methanobenzo[b]pyrido[1,2-f][1]oxa[5,6,9]triazacyclotridecine-11,13-dione] here?
The CC50 was greater than 20000 nM.

What about the EC50 [1] of the same compound?
The EC50 was 7690 nM.
